The record followed here is ChEMBL document CHEMBL4431311, “Endothelin-Receptor Antagonists beyond Pulmonary Arterial Hypertension: Cancer and Fibrosis” (J Med Chem, 2016).

Structures are written as SMILES. pIC50: −log10 of the molar value.

The target of assay [1] is T1, Endothelin-1 receptor (Homo sapiens, UniProt P25101).
T1 sequence (P25101 whole entry): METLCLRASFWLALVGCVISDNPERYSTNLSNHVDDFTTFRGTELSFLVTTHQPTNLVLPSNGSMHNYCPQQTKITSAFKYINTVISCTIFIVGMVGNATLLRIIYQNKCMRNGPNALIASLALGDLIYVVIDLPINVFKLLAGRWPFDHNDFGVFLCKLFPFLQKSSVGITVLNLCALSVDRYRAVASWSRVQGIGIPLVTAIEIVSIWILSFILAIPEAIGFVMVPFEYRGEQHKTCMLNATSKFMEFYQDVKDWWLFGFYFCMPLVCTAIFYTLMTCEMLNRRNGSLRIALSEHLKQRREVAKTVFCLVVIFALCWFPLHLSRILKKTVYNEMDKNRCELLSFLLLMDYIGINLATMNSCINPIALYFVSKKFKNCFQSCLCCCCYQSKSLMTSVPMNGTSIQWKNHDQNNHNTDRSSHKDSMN
The experiment in a line: Displacement of [125I]ET-1 from human ET-A receptor expressed in CHO cell membrane incubated for 2 hrs. In kind it is cell membranes. In general terms: In a radioligand displacement assay an active substance lowers the binding of a labelled ligand.

Assay [2] addresses T2, Endothelin-1 receptor (Homo sapiens) (UniProt P25101).
T2 sequence (whole entry): T1 sequence (P25101 whole entry)
Put plainly: Binding affinity to ET-A receptor (unknown origin) assessed as dissociation half life.

Assay [3] concerns the target T3, Endothelin receptor type B (Homo sapiens, UniProt P24530).
T3 sequence (P24530 whole entry): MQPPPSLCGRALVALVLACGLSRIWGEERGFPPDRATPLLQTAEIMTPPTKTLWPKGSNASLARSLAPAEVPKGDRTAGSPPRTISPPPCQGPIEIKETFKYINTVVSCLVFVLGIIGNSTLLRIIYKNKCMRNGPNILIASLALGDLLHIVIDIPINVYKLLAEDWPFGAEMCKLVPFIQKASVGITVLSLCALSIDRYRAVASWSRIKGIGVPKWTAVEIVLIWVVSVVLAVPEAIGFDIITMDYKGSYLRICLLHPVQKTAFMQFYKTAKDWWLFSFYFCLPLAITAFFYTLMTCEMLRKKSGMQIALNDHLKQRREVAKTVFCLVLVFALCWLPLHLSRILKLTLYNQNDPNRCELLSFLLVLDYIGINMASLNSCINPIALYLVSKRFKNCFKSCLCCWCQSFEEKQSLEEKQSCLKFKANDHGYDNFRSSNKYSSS
The experiment in a line: Displacement of [125I]ET-1 from ET-B receptor in human Girardi heart cells incubated for 4 hrs by gamma counting method. It is filed as cell-based.

The target in assay [4] is T1, Endothelin-1 receptor. The experiment in a line: Displacement of [125I]ET-1 from ET-A receptor in human SK-N-MC cells incubated for 4 hrs by gamma counting method. It is filed as cell-based.

The pIC50 is the IC50 on a negative log10 scale, so that one unit is a factor of ten. Lower therefore signals a high IC50. In turn, `Cc1cc(C)cc(C(=O)N(C)[C@H](Cc2ccc(-c3ccccc3)cc2)C(=O)N[C@@H](Cc2c[nH]c3ccccc23)C(=O)O)c1` showed a pIC50 in assay [1] of 7.03. As for `COc1ccccc1Oc1c(NS(=O)(=O)c2ccc(C(C)(C)C)cc2)nc(-c2ncccn2)nc1OCCO`, the T1/2 in assay [2] was 1 min. For `CCCC[C@H](NC(=O)[C@@H](Cc1cn(C(=O)OC)c2ccccc12)NC(=O)[C@@H](CC(C)(C)C)NC(=O)N1[C@H](C)CCC[C@@H]1C)C(=O)O`, the pIC50 in assay [3] is 8.92; in assay [4], 5.89.
